Laboratory results reported in patent US9988343B2, “Inhibitors of histone deacetylase” (Dana-Farber Cancer Institute, Inc., priority 2013, dated 2018).

Experiments:
[1] = test system: pSTAT3 (Tyr705); experiment: Immunoblot of STAT3 phosphorylation in MM cells; type: cell-based, human
Procedure: MM cells were harvested and lysed using sodium dodecyl sulfate-polyacrylamide gel electrophoresis (SDS-PAGE) sample buffer containing 60 mM Tris-HCl, pH 6.8, 2% SDS, 10% glycerol, 0.005% bromophenol blue, 5 mM ethylenediaminetetraacetic acid, 5 mM NaF, 2 mM […], 1 mM phenylmethylsulfonyl fluoride (PMSF), 5 μg/mL leupeptin, and 5 μg/mL aprotinin; and then heated at 100° C. for 5 min. After the determination of protein concentration using DC protein assay (Bio-Rad, Hercules, Calif.), β-mercaptoethanol (β-ME) was added to the whole-cell lysates to a 2% final β-ME concentration. The whole-cell lysates were subjected to SDS-PAGE, transferred to nitrocellulose membranes (Bio-Rad, Hercules, Calif.) or polyvinylidene fluoride membranes (Millipore, Billerica, Mass.), and immunoblotted with anti-histone H3, -HDAC1, -HDAC2, -HDAC3, -Acetyl-histone H2A (Lysine 5) (Ac-H2AK5), -Acetyl-histone H2B (lysine 5) (Ac-H2 BK5), -Acetyl-histone H3 (lysine 9) (Ac-H3K9), -Acetyl-histone H4 (lysine 8) (Ac-H4K8), -glyceraldehyde-3-phosphate dehydrogenase (GAPDH), -poly (ADP-ribose) polymerase (PARP), -caspase-3, -caspase-8, -caspase-9, -Signal transducers and activators of transcription 3 (STAT3), -phospho-STAT3 (pSTAT3) (tyrosine 705), -pSTAT3 (serine 727), -p21, -Janus kinase 2 (JAK2), -acetylated-Lysine (Ac-K), and anti-phosphorylated-tyrosine antibodies (Abs; Cell Signaling Technology, Beverly, Mass.).
MM.1S, U266, and INA6 cells were cultured with DMSO control or LBH589 (50 and 100 nM) for 8 h.
MM.1S cells pretreated with or without 50 nM LBH589 for 8 hours were then treated with IL-6 (10 ng/mL) or BMSC culture supernatants (#1 and #2) for 15 minutes. Whole cell lysates were subjected to immunoblotting with anti-pSTAT3 (Tyr705) and STAT3 Abs.
In addition, INA-6 cells were cultured with DMSO control, LBH589 (50 nM), TSA (1 μM) or SAHA (2 μM) for 8 hours. Whole cell lysates were subjected to immunoblotting with anti-pSTAT3 (Tyr705), STAT3, and GAPDH Abs.
Whole cell lysates were subjected to immunoblotting with anti-pSTAT3 (Tyr705), -STAT3, -pERK1/2 (Thr202/204), and -ERK1/2 Abs (FIG. 6G).
See, e.g., Hideshima et al. Blood. 2006, 107:4053-4062. Since bortezomib upregulates activated STAT3 in head and neck squamous cell carcinoma (see, e.g., Li et al. Mol Cancer Ther 2009. 8:2211-2220), experiments were conducted to test whether bortezomib enhances p-STAT3 in MM cells. RPMI8226 cells were infected with Luc, HDAC1 (sh1), HDAC2 (sh1) or HDAC3 (sh1) shRNAs and then treated with or without bortezomib (5 nM) for 6 hours. Whole cell lysates were subjected to immunoblotting with anti-STAT3, -pSTAT3 (Tyr705), -pERK1/2 (Thr202/204) and -ERK1/2 Abs.

[2] = target: T1, HDAC6 (Homo sapiens, UniProt Q9UBN7); experiment: HDAC6 inhibitory activity (IC50); type: biochemical; conditions: Table 2; read-out: HDAC6
T1 sequence (Q9UBN7 1-1215): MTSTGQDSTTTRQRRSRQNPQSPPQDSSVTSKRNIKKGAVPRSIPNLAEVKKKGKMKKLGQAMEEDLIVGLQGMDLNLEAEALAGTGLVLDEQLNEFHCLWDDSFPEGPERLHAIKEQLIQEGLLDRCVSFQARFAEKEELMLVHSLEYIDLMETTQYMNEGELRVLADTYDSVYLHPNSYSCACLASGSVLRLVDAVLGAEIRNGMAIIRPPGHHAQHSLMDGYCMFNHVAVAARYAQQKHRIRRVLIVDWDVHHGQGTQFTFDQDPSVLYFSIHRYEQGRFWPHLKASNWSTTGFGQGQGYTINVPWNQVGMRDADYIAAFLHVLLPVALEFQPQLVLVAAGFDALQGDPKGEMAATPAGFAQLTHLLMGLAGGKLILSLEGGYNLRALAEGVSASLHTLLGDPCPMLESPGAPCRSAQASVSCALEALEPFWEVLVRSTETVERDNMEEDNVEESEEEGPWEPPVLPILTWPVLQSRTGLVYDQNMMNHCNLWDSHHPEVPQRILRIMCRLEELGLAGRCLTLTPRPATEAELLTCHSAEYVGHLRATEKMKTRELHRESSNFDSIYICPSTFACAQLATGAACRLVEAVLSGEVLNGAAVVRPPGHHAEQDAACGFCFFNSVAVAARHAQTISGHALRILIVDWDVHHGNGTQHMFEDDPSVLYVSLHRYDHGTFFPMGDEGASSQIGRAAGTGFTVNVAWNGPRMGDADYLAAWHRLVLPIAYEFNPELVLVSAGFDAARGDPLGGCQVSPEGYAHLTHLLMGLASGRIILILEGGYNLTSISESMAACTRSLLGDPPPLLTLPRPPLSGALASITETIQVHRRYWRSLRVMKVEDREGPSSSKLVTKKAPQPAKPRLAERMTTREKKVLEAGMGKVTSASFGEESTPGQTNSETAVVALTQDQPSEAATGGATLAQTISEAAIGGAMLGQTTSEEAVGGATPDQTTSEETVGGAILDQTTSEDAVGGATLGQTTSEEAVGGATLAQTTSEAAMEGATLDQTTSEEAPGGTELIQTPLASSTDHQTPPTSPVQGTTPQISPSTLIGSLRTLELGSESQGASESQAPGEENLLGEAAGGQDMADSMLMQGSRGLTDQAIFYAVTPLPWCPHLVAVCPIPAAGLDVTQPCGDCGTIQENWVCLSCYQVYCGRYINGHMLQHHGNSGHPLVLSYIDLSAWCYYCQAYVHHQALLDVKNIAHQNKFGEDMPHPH
Procedure: (§1) HDAC inhibitor compounds designed and synthesized in accordance with the present invention were tested for their inhibitor activity against several different HDAC isoforms.

[3] = target: HDAC3 (Homo sapiens, UniProt O15379); experiment: HDAC3 inhibitory activity (IC50); type: biochemical; conditions: Table 2; read-out: HDAC3
Procedure: as §1

[4] = target: HDAC2 (Homo sapiens, UniProt Q92769); experiment: HDAC2 inhibitory activity (IC50); type: biochemical; conditions: Table 2; read-out: HDAC2
Procedure: as §1

[5] = target: HDAC1 (Homo sapiens, UniProt Q13547); experiment: HDAC1 inhibitory activity (IC50); type: biochemical; conditions: Table 2; read-out: HDAC1
Procedure: as §1

[6] = test system: MM cell lines; experiment: Cell growth inhibition assay (MTT) in MM cell lines; type: cell-based, human; conditions: MM cell lines, 48 hours, MTT (FIG. 1A)
Procedure: To measure proliferation of MM cells, the rate of DNA synthesis was measured by ^3[H]-thymidine (Perkin-Elmer) uptake.
The growth inhibitory effect of Merck60 (HDACL, 2 inhibitor previously reported as compound #60 by Method et al. Bioorg. Med. Chem. Lett. 2008. 18(3):973-8) versus MS275 (HDAC1, 2, 3 inhibitor) was examined in MM cell lines using MTT assay. MM cells were cultured with Merck60 (left panel) or MS275 (right panel) for 48 hours. Cell growth was assessed by MTT assay. All experiments were performed 3 times in quadruplicate. Data represent mean±SD.
Cell growth was assessed by MTT assay. All experiments were performed 3 times in quadruplicate. Data represent mean±SD.

[7] = test system: RPMI8226 cells; experiment: Combination with bortezomib, MTT cytotoxicity, combination index; type: cell-based, human; conditions: RPMI8226, MTT, 24 h
Procedure: The combined effect of drugs was analyzed by isobologram analysis using the Compusyn software program (ComboSyn, Inc.); a combination index (CI)<1 is indicative of a synergistic effect.
All experiments were performed 3 times in quadruplicate. Data represent mean±SD (FIG. 7D).

[8] = test system: MM.1S cells; experiment: Immunoblot of histone and α-tubulin acetylation in MM.1S cells; type: cell-based, human; conditions: 12 h, Compound 10 10 and 20 μM
[9] = INA-6 cells, 8 hours, TSA 1 μM, SAHA 2 μM (FIG. 4C)

Chain of HDAC3 (O15379 whole entry): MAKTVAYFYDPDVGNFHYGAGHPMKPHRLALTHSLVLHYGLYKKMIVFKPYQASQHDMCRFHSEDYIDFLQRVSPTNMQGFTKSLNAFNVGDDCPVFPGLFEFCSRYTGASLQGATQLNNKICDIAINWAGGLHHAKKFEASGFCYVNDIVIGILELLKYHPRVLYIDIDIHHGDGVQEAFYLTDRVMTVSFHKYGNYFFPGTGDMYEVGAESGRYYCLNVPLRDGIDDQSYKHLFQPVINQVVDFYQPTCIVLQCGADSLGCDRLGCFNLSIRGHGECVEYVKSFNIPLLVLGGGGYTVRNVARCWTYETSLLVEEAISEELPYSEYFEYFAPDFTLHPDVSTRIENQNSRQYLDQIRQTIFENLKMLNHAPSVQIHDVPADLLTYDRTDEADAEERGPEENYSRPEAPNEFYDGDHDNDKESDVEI
Chain of HDAC3 (Q9Y618 395-489 partner limits assumed): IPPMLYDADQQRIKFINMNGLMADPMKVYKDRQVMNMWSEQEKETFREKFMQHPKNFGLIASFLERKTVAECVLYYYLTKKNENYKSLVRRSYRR
Chain of HDAC1 (Q13547 whole entry): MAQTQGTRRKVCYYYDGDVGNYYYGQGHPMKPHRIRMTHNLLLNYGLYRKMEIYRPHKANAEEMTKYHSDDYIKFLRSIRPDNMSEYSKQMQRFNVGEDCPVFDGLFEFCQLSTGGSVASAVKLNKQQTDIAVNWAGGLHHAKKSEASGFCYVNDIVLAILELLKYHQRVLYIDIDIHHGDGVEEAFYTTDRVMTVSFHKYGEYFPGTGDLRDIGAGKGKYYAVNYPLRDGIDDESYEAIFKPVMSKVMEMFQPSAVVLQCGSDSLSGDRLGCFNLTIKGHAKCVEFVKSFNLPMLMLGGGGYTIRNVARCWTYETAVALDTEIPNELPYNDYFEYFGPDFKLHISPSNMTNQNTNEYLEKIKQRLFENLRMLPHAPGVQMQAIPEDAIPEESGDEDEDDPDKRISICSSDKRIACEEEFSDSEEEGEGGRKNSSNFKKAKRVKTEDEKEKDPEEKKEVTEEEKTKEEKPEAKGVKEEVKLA
Chain of HDAC2 (Q92769 whole entry): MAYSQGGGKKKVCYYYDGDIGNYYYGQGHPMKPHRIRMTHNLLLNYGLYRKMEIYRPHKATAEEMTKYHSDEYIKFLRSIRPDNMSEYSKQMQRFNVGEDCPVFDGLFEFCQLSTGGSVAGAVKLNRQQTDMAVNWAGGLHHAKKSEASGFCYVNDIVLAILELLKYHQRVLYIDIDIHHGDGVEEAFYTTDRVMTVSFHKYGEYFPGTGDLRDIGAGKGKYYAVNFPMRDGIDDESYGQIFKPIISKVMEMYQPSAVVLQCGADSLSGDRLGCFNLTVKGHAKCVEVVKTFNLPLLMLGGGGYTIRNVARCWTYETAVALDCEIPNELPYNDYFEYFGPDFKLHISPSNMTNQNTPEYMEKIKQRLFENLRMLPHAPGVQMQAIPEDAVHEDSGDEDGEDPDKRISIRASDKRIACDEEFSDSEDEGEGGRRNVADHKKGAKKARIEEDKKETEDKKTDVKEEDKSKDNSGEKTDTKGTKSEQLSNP

SMILES	IC50 [2]	IC50 [3]	IC50 [4]	IC50 [5]	also measured
O=C(CCCCCCC(=O)Nc1ccccc1)NO [SAHA, suberoylanilide hydroxamic acid]					p-STAT3 [1, 9]: downregulated p-STAT3
Cc1ccc(C(=O)Nc2ccccc2N)cn1 [Compound 17]	> 100000 nM	213 nM	1360 nM	1390 nM	
CC(=O)Nc1ccc(C(=O)Nc2cc(-c3ccccc3)ccc2N)cc1 [Compound 11]	> 100000 nM	843 nM	60.4 nM	< 10 nM	
CC(=O)Nc1ccc(C(=O)Nc2cc(-c3cccs3)ccc2N)cc1 [Merck60, 4-acetamido-N-(2-amino-5-(thiophen-2-yl)phenyl)benzamide]					MM cell growth inhibition [6]: only a modest growth inhibition effect; CI (combination index) ([7]; HDAC inhibitor 1 μM + bortezomib 2 nM): 1.95; CI (combination index) ([7]; HDAC inhibitor 1 μM + bortezomib 3 nM): 1.06; CI (combination index) ([7]; HDAC inhibitor 1 μM + bortezomib 4 nM): 1.19; CI (combination index) ([7]; HDAC inhibitor 2 μM + bortezomib 2 nM): 1.54; CI (combination index) ([7]; HDAC inhibitor 2 μM + bortezomib 3 nM): 1.21; CI (combination index) ([7]; HDAC inhibitor 2 μM + bortezomib 4 nM): 1.34; CI (combination index) ([7]; HDAC inhibitor 3 μM + bortezomib 2 nM): 1.45; CI (combination index) ([7]; HDAC inhibitor 3 μM + bortezomib 3 nM): 1.4; CI (combination index) ([7]; HDAC inhibitor 3 μM + bortezomib 4 nM): 1.55
O=C(Nc1ccccc1O)c1cccnc1 [Compound 5]	> 100000 nM	3320 nM	3670 nM	10500 nM	
Nc1ccccc1NC(=O)c1ccc(Cl)nc1 [Compound 9]	> 100000 nM	280 nM	2590 nM	3280 nM	
Nc1ccccc1NC(=O)c1cnc(Nc2ccccc2)nc1 [Compound 8]	> 100000 nM	169 nM	1210 nM	735 nM	
O=C(Nc1ccccc1O)c1ccccn1 [Compound 7]	> 100000 nM	3620 nM	4110 nM	12400 nM	
Cc1[nH]c2ccccc2c1CCNCc1ccc(/C=C/C(=O)NO)cc1 [LBH589, reference compound]					P-STAT3 upregulated by IL-6 or BMSC culture supernatants ([1]; MM.1S, 50 nM pretreatment 8 hours, IL-6 10 ng/mL or supernatants 15 minutes (FIG. 4B)): blocked; p-STAT3 ([1]; MM.1S, U266, INA-6 cells, 50 and 100 nM, 8 h (FIG. 4A)): significantly inhibited; histone acetylation ([8]; LBH589 50 and 100 nM (FIG. 6F left)): significantly triggered both histone and α-tubulin acetylation; α-tubulin acetylation (biomarker of HDAC6 inhibition) ([8]; LBH589 50 and 100 nM (FIG. 6F right)): significantly triggered both histone and α-tubulin acetylation
CC(=O)Nc1ccc(C(=O)Nc2ccc(F)cc2N)cc1 [Compound 12]	> 100000 nM	70.2 nM	760 nM	1230 nM	
O=C(Nc1ccc(F)cc1O)c1cccnc1 [Compound 15]	> 100000 nM	2350 nM	5520 nM	13700 nM	
Nc1ccccc1NC(=O)c1ccncc1 [Compound 2]	> 100000 nM	368 nM	2340 nM	2820 nM	
Nc1cc(F)ccc1NC(=O)c1cccnc1 [Compound 13]	> 100000 nM	1960 nM	13400 nM	27000 nM	
Nc1ccccc1NC(=O)c1cccnc1 [Compound 1]	74300 nM				
Nc1cc(F)ccc1NC(=O)c1cnccn1 [Compound 14]	> 100000 nM	296 nM	2320 nM	4120 nM	
Nc1ccccc1NC(=O)c1ccccn1 [Compound 3]	> 100000 nM	346 nM	2360 nM		
CC(/C=C/C(=O)NO)=C\[C@@H](C)C(=O)c1ccc(N(C)C)cc1 [TSA]					p-STAT3 [1, 9]: downregulated p-STAT3
O=C(Nc1ccccc1O)c1ccncc1 [Compound 6]	> 100000 nM	1990 nM	1910 nM	5770 nM	
